Data as given in US20160166560A1, “Urea Compounds and Their Use as FAAH Enzyme Inhibitors” (BIAL-PORTELA & Cª, S.A., priority 2013, published 2016).
Counter-ions that a name gives are not always drawn.

Columns and labels:
FAAH [1] = target: T1, FAAH (Mus musculus, UniProt O08914); experiment: In vitro/ex vivo FAAH activity determination in brain after intra-tracheal instillation; design: Liver and brain fragments were removed and processed for enzymatic activity determination; from tissue; species or system male NMRI mice; settings: remaining enzymatic activity vs controls, 1 mg/kg intra-tracheal instillation, sacrificed after 8 h
T1 sequence (O08914 1-579): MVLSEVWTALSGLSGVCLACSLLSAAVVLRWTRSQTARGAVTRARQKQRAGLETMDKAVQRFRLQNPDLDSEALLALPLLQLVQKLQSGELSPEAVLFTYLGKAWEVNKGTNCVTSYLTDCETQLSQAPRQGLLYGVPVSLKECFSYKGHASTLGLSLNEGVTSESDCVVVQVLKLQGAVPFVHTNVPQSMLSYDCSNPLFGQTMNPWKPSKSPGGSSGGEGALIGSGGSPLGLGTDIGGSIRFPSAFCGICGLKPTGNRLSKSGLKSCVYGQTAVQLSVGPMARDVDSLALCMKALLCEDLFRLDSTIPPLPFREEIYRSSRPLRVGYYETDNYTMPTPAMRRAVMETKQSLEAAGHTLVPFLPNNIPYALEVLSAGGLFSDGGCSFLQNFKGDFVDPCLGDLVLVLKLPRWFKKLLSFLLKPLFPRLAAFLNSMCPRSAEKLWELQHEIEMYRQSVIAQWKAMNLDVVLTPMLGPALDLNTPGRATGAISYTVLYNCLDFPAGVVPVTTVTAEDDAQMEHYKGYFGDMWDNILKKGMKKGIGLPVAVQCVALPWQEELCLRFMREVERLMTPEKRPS
Procedure: (§1) To evaluate the selectivity of test compounds in inhibiting FAAH activity, male NMRI mice were administrated following instillation with 1 mg/kg compound and were sacrificed after 8 h treatment. Liver and brain fragments were removed and processed for enzymatic activity determination.
(§2) FAAH activity was measured as the amount of ^3H-ethanolamine formed, by liquid scintillation counting, from the hydrolysis of the substrate anandamide (AEA, labeled with ^3H on the ethanolamine part of the molecule). The percentage of remaining enzymatic activity was calculated in respect to controls and after blank subtraction. Therefore, a low value for the test compounds indicates a strong inhibitor.
(§3) Male NMRI mice (body weight range: 25-35 g) were obtained from Harlan Laboratories (Barcelona, Spain). Animals were kept 10 per cage, under controlled environmental conditions (12 hr light [8 am]/12 hr dark [8 pm]cycle; room temperature 22±1° C.). Food and tap water were allowed ad libitum. Animals were habituated to the animal facilities at least for a week prior to experiments. The experiments were all carried out during daylight hours.
(§4) Animals were fasted overnight before administration of compounds. […] After administration the animals were given atipamezole (1 mg/kg) to reverse the sedative and analgesic effects induced by the anaesthesia.
(§5) Fifteen minutes before sacrifice, animals were anesthetized with pentobarbital 60 mg/kg administrated intra-peritoneally. The brain (without cerebellum) and a fragment of liver were collected into plastic vials containing membrane buffer (3 mM MgCl2, 1 mM EDTA, 50 mM Tris HCl, pH 7.4). Glass beads (2.5 mm BioSpec Products, Bartlesville, Okla., USA) were added to the vials containing the brain and liver tissues. Tissues were stored at −20° C. until analysis.
(§6) Anandamide [ethanolamine-1-^3H-] was obtained from American Radiochemicals—with a specific activity of 60 Ci/mmol. All other reagents were obtained from Sigma-Aldrich. Optiphase Supermix was obtained from Perkin Elmer.
(§7) Brain and liver tissues were thawed and homogenized in 10 volumes of membrane buffer (3 mM MgCl2, 1 mM EDTA, 50 mM Tris HCl, pH 7.4) with homogenizer Precellys 24 Dual Tissue Homogenizer (Bertin Technologies) for 2 cycles of 5 sec (5000 rpm).
(§8) Total protein in the tissue homogenates was determined with the BioRad Protein Assay (BioRad) using a standard curve of BSA ([…]). Tissue homogenates were diluted to appropriate concentration for enzymatic determination in assay buffer (1 mM EDTA, 10 mM Tris HCl, pH 7.6).
(§9) Reaction mix (total volume 200 μL) contained 2 μM AEA (2 μM AEA+5 nM ^3H-AEA), 0.1% fatty acid free BSA, 15 μg (brain) or 5 μg (liver) protein, in assay buffer (1 mM EDTA, 10 mM Tris pH 7.6).
(§10) The test compound was used at a level of 1 mg/kg protein. After 15 minutes pre-incubation at 37° C. of the protein sample, reaction was started by the addition of the substrate solution (cold AEA+radiolabelled AEA+BSA). Reaction was carried out for 12 minutes for brain and liver tissues. Reaction was terminated by addition of 400 μL chloroform:methanol (1:1, v/v) solution. Reaction samples were vortex twice, left on ice for 5 minutes and then centrifuged in the microfuge for 7 minutes, 7000 rpm. 200 μL of the obtained supernatants were added to […] Optiphase Supermix scintillation cocktail previously distributed in 24-well plates.
(§11) Counts per minute (cpm) were determined in a Microbeta TriLux scintillation counter. In each assay blank samples (without protein) were prepared.

CYPs = CYPs metabolic stability assay in HLM (human liver microsomes); type: in vitro ADME; settings: HLM 1 mg/ml protein, compound 5 μM, 60 min, 37° C.; for Control (% remain): absence of NADPH; for CYP+ (% remain): with NADPH 1 mM
Procedure: Stability of the test compounds was performed in HLM (human liver microsomes) in the presence and in the absence of NADPH.
The stability was measured using the incubation mixture (100 μl total volume) contained 1 mg/ml total protein, MgCl2 5 mM and 50 mM K-phosphate buffer. Samples were incubated in the presence and in the absence of NADPH 1 mM. Reactions were pre-incubated 5 min and the reaction initiated with the compound under test (at a concentration of 5 μM). Samples were incubated for 60 min in a shaking water bath at 37° C. The reaction was stopped by adding 100 μl of acetonitrile. Samples were then centrifuged, filtered and supematant injected in HLPC-MSD. Test compounds were dissolved in DMSO and the final concentration of DMSO in the reaction was below 0.5% (v/v). At T0 acetonitrile was added before adding the compound. All experiments were performed with samples in duplicate.

FAAH [2] = target: T1, FAAH; experiment: In vitro/ex vivo FAAH activity determination in liver after intra-tracheal instillation; design: Liver and brain fragments were removed and processed for enzymatic activity determination; from tissue; host or cells: mouse liver fragment homogenate; species or system male NMRI mice; settings: remaining enzymatic activity vs controls, 1 mg/kg intra-tracheal instillation, sacrificed after 8 h
Procedure: as §1, §2, §3, §4, §5, §6, §7, §8, §9, §10, §11

Compound | FAAH Activity - Brain itc (% C) (FAAH [1]) | Control (% remain) (CYPs) | CYP+ (% remain) (CYPs) | FAAH Activity - Liver itc (% C) (FAAH [2]) | FAAH Activity - Brain itc (% C) (FAAH [1]; hydrochloride, 1 mg/kg) | FAAH Activity - Liver itc (% C) (FAAH [2]; hydrochloride, 1 mg/kg) | FAAH Activity - Brain itc (% C) (FAAH [1]; methanesulfonate, 1 mg/kg) | Control (% remain) (CYPs; methanesulfonate) | CYP+ (% remain) (CYPs; methanesulfonate) | FAAH Activity - Liver itc (% C) (FAAH [2]; methanesulfonate, 1 mg/kg)
COc1cc(CN2CCC(N(C)C(=O)n3cnc(-c4cccc(OS(N)(=O)=O)c4)c3)CC2)cc(OC)c1.Cl [Example 9, 3-(1-((1-(3,5-dimethoxybenzyl)piperidin-4-yl)(methyl)carbamoyl)-1H-imidazol-4-yl)phenyl sulfamate hydrochloride] | 107.2 % C | 102.5 % remain | 62.8 % remain | 3.9 % C | – | – | – | – | – | –
COc1cc(CN2CCC(N(C)C(=O)n3cnc(-c4cccc(OS(N)(=O)=O)c4)c3)CC2)ccc1F [Example 10, 3-(1-((1-(4-fluoro-3-methoxybenzyl)piperidin-4-yl)(methyl)carbamoyl)-1H-imidazol-4-yl)phenyl sulfamate hydrochloride] | 113.4 % C | 100.0 % remain | 5.8 % remain | 3.2 % C | – | – | – | – | – | –
COc1cccc(CN2CCC(N(C)C(=O)n3cnc(-c4cccc(OS(N)(=O)=O)c4)c3)CC2)c1.Cl [Example 11, 3-(1-((1-(3-methoxybenzyl)piperidin-4-yl)(methyl)carbamoyl)-1H-imidazol-4-yl)phenyl sulfamate hydrochloride] | 84.2 % C | 100.0 % remain | 5.9 % remain | 4.4 % C | – | – | – | – | – | –
COc1cc(CN2CCC(N(C)C(=O)n3cnc(-c4ccc(OS(N)(=O)=O)cc4)c3)CC2)ccc1F [Example 12, 4-(1-((1-(4-fluoro-3-methoxybenzyl)piperidin-4-yl)(methyl)carbamoyl)-1 H-imidazol-4-yl)phenyl sulfamate oxalate] | 108.7 % C | 106.2 % remain | 7.9 % remain | 3.8 % C | – | – | – | – | – | –
COc1cccc(CN2CCC(N(C)C(=O)n3cnc(-c4ccc(OS(N)(=O)=O)cc4)c3)CC2)c1 [Example 14, 4-(1-((1-(3-methoxybenzyl)piperidin-4-yl)(methyl)carbamoyl)-1H-imidazol-4-yl)phenyl sulfamate hydrochloride] | 89.3 % C | 100.9 % remain | 68.6 % remain | 6.0 % C | – | – | – | – | – | –
CN(C(=O)n1cnc(-c2cccc(OS(N)(=O)=O)c2)c1)C1CCN(c2ccc(O)cc2)CC1 [Example 15, 3-(1-((1-(4-hydroxyphenyl)piperidin-4-yl)(methyl)carbamoyl)-1H-imidazol-4-yl)phenyl sulfamate hydrochloride] | 91.1 % C | 94.4 % remain | 87.1 % remain | 3.0 % C | – | – | – | – | – | –
CN(C(=O)n1cnc(-c2cccc(NC(N)=O)c2)c1)C1CCN(Cc2ccccc2)CC1 [Example 16, N-(1-benzylpiperidin-4-yl)-N-methyl-4-(3-ureidophenyl)-1H-imidazole-1-carboxamide hydrochloride] | – | 101.4 % remain | 17.0 % remain | – | 96.9 % C | 4.5 % C | – | – | – | –
CN(C(=O)n1cnc(-c2cccc(NC(N)=O)c2)c1)C1CCN(Cc2ccc3c(c2)OCO3)CC1.Cl [Example 18, N-(1-(benzo[d][1,3]dioxol-5-ylmethyl)piperidin-4-yl)-N-methyl-4-(3-ureidophenyl)-1H-imidazole-1-carboxamide hydrochloride] | 93.3 % C | 97.6 % remain | 76.8 % remain | 3.4 % C | – | – | – | – | – | –
CN(C(=O)n1cnc(-c2cccc(NS(C)(=O)=O)c2)c1)C1CCN(c2ccc(O)cc2)CC1 [Example 24, N-(1-(4-hydroxyphenyl)piperidin-4-yl)-N-methyl-4-(3-(methylsulfonamido)phenyl)-1H-imidazole-1-carboxamide hydrochloride] | 92.6 % C | 91.5 % remain | 76.2 % remain | 5.7 % C | – | – | – | – | – | –
CN(C(=O)n1cnc(-c2cccc(NC(N)=O)c2)c1)C1CCN(c2ccc(O)cc2)CC1 [Example 25, N-(1-(4-hydroxyphenyl)piperidin-4-yl)-N-methyl-4-(3-ureidophenyl)-1 H-imidazole-1-carboxamide hydrochloride] | 100.7 % C | 61.5 % remain | 49.1 % remain | 9.0 % C | – | – | – | – | – | –
COc1ccc(CN2CCC(N(C)C(=O)n3cnc(-c4cccc(NC(N)=O)c4)c3)CC2)cc1OC [Example 26, N-(1-(3,4-dimethoxybenzyl)piperidin-4-yl)-N-methyl-4-(3-ureidophenyl)-1H-imidazole-1-carboxamide hydrochloride] | 124.3 % C | 97.7 % remain | 81.4 % remain | 12.4 % C | – | – | – | – | – | –
COc1cc(CN2CCC(N(C)C(=O)n3cnc(-c4ccc(OS(N)(=O)=O)cc4)c3)CC2)cc(OC)c1 [Example 27, 4-(1-((1-(3,5-dimethoxybenzyl)piperidin-4-yl)(methyl)carbamoyl)-1H-imidazol-4-yl)phenyl sulfamate methanesulfonate] | – | – | – | – | – | – | 84.3 % C | 96.9 % remain | 26.7 % remain | 13.9 % C
